Data from patent publication US9334249B2, “Inhibitors of cytomegalovirus” (Boehringer Ingelheim International GmbH, priority 2012, dated 2016).

Assays:
Format in all cases: cell-based, Human Cytomegalovirus
HCMV AD169 virus [1] = assay: HCMV AD169 CPE assay (MTS dye reduction, MRC-5 cells); conditions: Human betaherpesvirus 5, AD169, MRC5, 216 h, 9 days, read-out: EC50 (nM) Example A
Description: HCMV AD169 CPE Assay This assay format is a CPE (Cytopathic effect)-based assay that determines the ability of compounds to protect cells against infection with a dye reduction assay (MTS of CellTiter 96® AQueous Non-Radioactive Cell Proliferation Assay from Promega). The conversion of MTS into aqueous, soluble formazan is performed by dehydrogenase enzymes found in metabolically active cells. The quantity of formazan product determined by absorbance at 490 nm is directly proportional to the number of living cells in culture. [table] Serial dilutions of the DMSO stock compound solution are performed using DMSO in columns 2-11 and 14-23. DMSO alone is present in columns 1, 12, 13 and 24. Four μL of the DMSO serial dilutions is obtained and diluted using 96 μL of D-MEM 5% FBS culture medium to obtain 4% DMSO (7×). To perform the assay, 10 μL of the freshly prepared 4% DMSO serial dilution plate is added to the assay plate containing 40 μL of MRC-5 cells plated the day before (10000 cells per well). Twenty μL of diluted virus is added to columns 2-12 and 14-24 and only D-MEM 5% FBS medium to uninfected control (columns 1 and 13) for a final DMSO concentration of 0.6%. The virus dilution is based on the amount of virus required to obtain a Signal-to-Background of 3-4 (generally between 0.1 and 1 μL of virus stock per well or MOI=0.05). The assay plates are incubated at 37° C. with 5% CO2 for 9 days in order to obtain 100% CPE in infected control without compound (columns 12 and 24). Ten μL of freshly mixed room temperature MTS/PMS (1:20 v/v) is added and the plates are incubated at 37° C. with 5% CO2 for 4-5 h (until signal saturation at 2.3 in the 100% CPE control). The plates are sealed with TopSeal for biosafety and read on the Envision plate reader (Perkin-Elmer) or equivalent at OD 492 nm.

[2] = tested on: HCMV AD169-Bac-Luc2 US2-US6 clone #26 virus; assay: HCMV AD169-Bac luciferase assay (MRC-5 cells); conditions: Human betaherpesvirus 5, AD169, MRC5, 72 h, read-out: EC50 (nM) Example B
Text: HCMV AD169-Bac Luciferase Assay
This assay format is a luciferase reporter-based assay that determines the ability of compounds to inhibit the infection by detecting a luciferase signal decrease following the addition of BIGlo substrate (preparation indicated below) directly in the culture media. Mono-oxygenation of luciferin is catalyzed by luciferase in the presence of Mg2+, ATP and molecular oxygen. The generation of oxyluciferin is a luminescent reaction that can be detected with the proper platereader. Human Cytomegalovirus AD169-Bac is obtained from Dr. Thomas Shenk at Princeton University (reference paper Yu et al. 2002—J. Virol. 76 (5):2316-2328, herein incorporated by reference) and modified by recombineering to introduce a humanized firefly luciferase gene (Luc2) at the US2-US6 position in the HCMV genome. The virus is expanded in MRC-5 cells.
Serial dilutions of the DMSO stock compound solution are performed using DMSO in columns 2-11 and 14-23. DMSO alone is present in columns 1, 12, 13 and 24. Four μL of the DMSO serial dilutions is obtained and diluted using 96 μL of D-MEM 5% FBS culture medium to obtain 4% DMSO (7×).
To perform the assay, 7 μL of the freshly prepared 4% DMSO serial dilution plate is added to the assay plate containing 25 μL of MRC-5 cells plated the day before (10000 cells per well). Seventeen μL of diluted virus is added to columns 2-12 and 14-24 and only D-MEM 5% FBS medium to uninfected control (columns 1 and 13) for a final DMSO concentration of 0.6%. The virus dilution is based on the amount of virus required to obtain the highest luciferase signal possible without CPE (generally between 0.05 and 1 μL of virus stock per well or MOI=0.02). The assay plates are incubated at 37° C. with 5% CO2 for 3 days. Fifteen μL of room temperature BIGlo buffer is added to room temperature assay plates also incubated at room temperature for 15 minutes. The plates are sealed with TopSeal for biosafety and the luminescence signal is read on the TopCount plate reader (Perkin-Elmer) or equivalent.

HCMV AD169 virus [3] = assay: HCMV AD169 qPCR 96-well assay (viral DNA replication, MRC-5 cells); conditions: Human betaherpesvirus 5, AD169, MRC5, 72 h, qPCR of viral DNA, 3 days, read-out: EC50 (nM) Example C
Description: HCMV AD169 qPCR 96-Well Assay
The hCMV quantitative PCR (qPCR) assay evaluates the ability of a compound to inhibit, directly or indirectly, the replication of hCMV viral DNA during the first 72 h following the infection. Compounds that inhibit either entry or the hCMV polymerase are active in this assay. Compounds are tested in the qPCR assay in 96-well plates, using a 9-point dose-response with 8 compounds for each 96-well plate. The assay was adapted from the method described by Schnepf et al., Rapid determination of antiviral drug susceptibility of human cytomegalovirus by real-time PCR, Antiviral Research 81 (2009) 64-67. […]

SMILES: O=C(Cc1cccc(C(F)(F)F)c1)Nc1ccc(NC(=O)c2cscn2)nc1 [Compound 1027]
- EC50 (HCMV AD169 virus [1]): 2800 nM

SMILES: CC(C(=O)Nc1nc2ccc(NC(=O)c3cscn3)cc2[nH]1)c1cccc(Cl)c1 (stereo not shown) [Compound 1037]
- EC50 [2]: 69 nM

SMILES: N#Cc1cccc(CC(=O)Nc2nc3ccc(NC(=O)c4cscn4)cc3s2)c1 [Compound 1098]
- EC50 [2]: 74 nM

SMILES: O=C(Cc1ccc(NC(=O)c2cscn2)cc1)Nc1cc(C(F)(F)F)cc(C(F)(F)F)c1 [Compound 1122]
- EC50 (HCMV AD169 virus [1]): 142 nM
- EC50 [2]: 110 nM

SMILES: O=C(Cc1ccc(NC(=O)c2cscn2)nc1)Nc1cc(C(F)(F)F)cc(C(F)(F)F)c1 [Compound 1131]
- EC50 (HCMV AD169 virus [3]): 220 nM
- EC50 (HCMV AD169 virus [1]): 1520 nM
- EC50 [2]: 143 nM

SMILES: CC(C(=O)Nc1nc2ccc(NC(=O)c3cscn3)cc2n1C)c1cccc(Cl)c1 (stereo not shown) [Compound 1137]
- EC50 (HCMV AD169 virus [1]): 1700 nM
- EC50 [2]: 1600 nM

SMILES: O=C(Cc1ccc(NC(=O)c2cscn2)cn1)Nc1cc(C(F)(F)F)cc(C(F)(F)F)c1 [Compound 1143]
- EC50 (HCMV AD169 virus [1]): 555 nM
- EC50 [2]: 51 nM

SMILES: O=C(Cn1ccc(NC(=O)c2cscn2)cc1=O)Nc1cccc(C(F)(F)F)c1 [Compound 1148]
- EC50 [2]: 658 nM

SMILES: O=C(Cc1cccc(C(F)(F)F)c1)Nc1ccc2nc(NC(=O)c3cscn3)sc2c1 [Compound 1158]
- EC50 (HCMV AD169 virus [3]): 180 nM
- EC50 (HCMV AD169 virus [1]): 250 nM
- EC50 [2]: 45 nM
